Data: PubChem BioAssay (NCI)
Values joined by “and” are separate entries in the source; they are usually repeats but may differ in a detail not shown here. Equal values may be shown once.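 Compound exposure: 48 hours, 5 concentrations, 96-well plates. GI50 = concentration required for 50% inhibition of growth. TGI: concentration producing complete growth inhibition.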

What was measured:
Assay in all cases: DTP human tumour cell line panel, 48 h
[1] = tested on: OVCAR-3 ovarian
[2] = tested on: HS 578T breast
[3] = tested on: HCT-116 colon
[4] = tested on: NCI-H522 lung
[5] = tested on: SF-295 CNS
[6] = tested on: BT-549 breast
[7] = tested on: OVCAR-4 ovarian
[8] = tested on: NCI-H226 lung
[9] = tested on: NCI-H460 lung
[10] = tested on: NCI-H23 lung

Structure (SMILES) | GI50 [1] | TGI [1] | GI50 [2] | TGI [2] | GI50 [3] | TGI [3] | GI50 [4] | TGI [4] | GI50 [5] | TGI [5] | GI50 [6] | TGI [6] | GI50 [7] | TGI [7] | GI50 [8] | TGI [8] | GI50 [9] | TGI [9] | GI50 [10] | TGI [10]
CSc1nc2nc(-c3ccccc3)c(C)c-2c2n1C(C)C(=O)N2 (configuration not stated) | 26.8 µM | 81.8 µM | 77.5 µM | > 100 µM | 37.4 µM | > 100 µM | 38.1 µM | > 100 µM | 24 µM | > 100 µM | 50.3 µM | > 100 µM | 40.1 µM | > 100 µM | 35.7 µM | > 100 µM | 32.4 µM | > 100 µM |  | 
COc1cc2nnc3c4cccnc4[nH]c3c2cc1OC | 1.37 µM and 1.15 µM | 22.6 µM and 5.5 µM | 4.21 µM and 3.7 µM | 50 µM and 82.7 µM | 0.292 µM and 0.127 µM |  | 1.65 µM and 2.05 µM | 16.6 µM and 7.6 µM | 9.72 µM and 2.43 µM | 50 µM and 6.92 µM | 6.42 µM and 3.75 µM | 43.9 µM and 35.1 µM | 1.95 µM and 1.6 µM | 50 µM and > 100 µM | 5.44 µM and 1.94 µM | 21.4 µM and 5.11 µM | 2.84 µM and 2.46 µM | 12.9 µM and 8.63 µM | 11.1 µM and 2.34 µM | 40.5 µM and 6.71 µM
COc1ccc(-c2cc(/C=C/C(=O)c3ccc(N)cc3)[nH]n2)cc1OC | 1.92 µM | 4.19 µM | 6.58 µM | > 100 µM | 1.71 µM | 3.51 µM | 1.65 µM | 3.22 µM | 3.58 µM | 15.2 µM | 1.5 µM | 2.94 µM | 2.68 µM | 15.8 µM | 2.32 µM | 7.38 µM | 2.03 µM | 4.53 µM | 4.21 µM | 19.3 µM
Nc1nc(=S)c2ncn(C3OC(COP(=O)(O)O)C(O)C3O)c2[nH]1 (configuration not stated) | 3.2 µM | > 100 µM | 6.36 µM | > 100 µM | 0.5 µM | > 100 µM | 2.11 µM | 9.52 µM | 0.378 µM | > 100 µM | 2.38 µM | > 100 µM | 2.19 µM | > 100 µM | 9.9 µM | > 100 µM | 0.562 µM | 10.9 µM | 1.93 µM | > 100 µM
CN1CCN(c2c(F)cc(NC3=C(Cl)C(=O)c4ncccc4C3=O)cc2F)CC1 | 0.303 µM | 1.37 µM | 11.2 µM | 56.4 µM | 1.78 µM | 3.35 µM | 1.43 µM | 3.82 µM | 17.2 µM | 33.5 µM | 12.9 µM | 25.9 µM | 1.33 µM | 2.66 µM | 22.2 µM | 55.9 µM | 18.1 µM | 36 µM | 11.8 µM | 32 µM
O=C(COc1ccc(/C=C2\Oc3ccccc3C2=O)cc1)Nc1nc2ccccc2s1 | 1.9 µM | 4.78 µM | 18.1 µM | 96.4 µM | 19.3 µM | > 100 µM | 0.207 µM | 0.487 µM | 28.7 µM | > 75.3 µM | 6.67 µM | > 80.5 µM | 21.2 µM | > 100 µM | 23.3 µM | > 95.5 µM | 43.8 µM | > 100 µM | 18.8 µM | > 100 µM
CC(C)Cc1ccc(C(C)/C=C2\CCC(CN(C)C)C2=O)cc1 (configuration not stated) |  | 26.5 µM |  | 8.45 µM |  | 23.1 µM |  | 15.2 µM |  | 28.6 µM |  | 31.1 µM |  | 35.2 µM |  | 46.4 µM |  | 45.8 µM |  | 34 µM
Cn1c(=O)c2nc3sc4c(n3c2n(C)c1=O)C(=O)c1ccccc1C4=O |  | > 50.6 µM |  | 51.5 µM |  | > 71.4 µM |  | 27.9 µM |  | > 100 µM |  | > 61.5 µM |  | > 81.4 µM |  | > 87.2 µM |  | > 95.4 µM |  | > 75.1 µM
CCOC(=O)/C(=C\c1cccc(C)c1)C(C)=O |  | 28.1 µM |  | 51.3 µM |  | 30.4 µM |  | 22.8 µM |  | 55.8 µM |  | 22.7 µM |  | 59.6 µM |  | > 100 µM |  | 51.6 µM |  | 39 µM
O=C1c2ccccc2C(=O)c2c(NC3CCCCC3)ccc(Nc3ccc(S(=O)(=O)O)cc3)c21 |  | > 100 µM |  | > 100 µM |  | > 100 µM |  | 52.5 µM |  | > 100 µM |  | > 100 µM |  | > 100 µM |  | > 100 µM |  | > 100 µM |  | > 100 µM
OCC1CC[N-]CC1.OCC1CC[N-]CC1.[Cl][Pt+2]([Cl])([Cl])[Cl] | 45.9 µM |  | 45.8 µM |  | 25.6 µM | 86.5 µM | 9.53 µM | 46.3 µM |  |  | 27 µM |  | 42.5 µM |  | 39.5 µM |  | 27.9 µM | 95.7 µM | 28.6 µM | 
CCSCC1CC(O)(c2ccccc2)C(c2ccccc2)C(c2ccc(F)cc2)O1 (configuration not stated) | 2.19 µM | 5.26 µM | 1.83 µM | 4.88 µM | 1.47 µM | 3.22 µM | 1.57 µM | 4.84 µM |  |  | 2.31 µM | 7.72 µM | 2.41 µM | 8.04 µM | 1.97 µM | 4.89 µM | 1.83 µM | 4.01 µM | 2.01 µM | 4.87 µM
